IC50 data for 19 molecules are collected here from US12240862B2, “Inhibitors of peptidylarginine deiminases” (Gilead Sciences, Inc., priority 2020, dated 2025).

This assay has as its target T1, human PAD4 (Homo sapiens, UniProt Q9UM07).
T1 construct: human PAD4 (NM_012387), A2P663, was PCR amplified; His-SUMO (N, cleaved yes); made in house; host or cells: E. coli BL21(DE3)
Briefly: In vitro PAD4 BAEE biochemical assay. The note with it: human PAD4, BAEE substrate; 5 nM PAD4, 2 mM calcium chloride, 3 mM BAEE; geometric mean of multiple experiments. A digest of the protocol: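 Ammonia generated from BAEE serves as the readout, measured by o-phthalaldehyde after EDTA termination. Final conditions: 5 nM human PAD4 (SUMO tag cleaved), 2 mM CaCl2, 3 mM BAEE, pH 7.6 MOPS buffer, 25 °C for 2 h following a 30-min compound preincubation.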

T1 sequence (Q9UM07 2-663): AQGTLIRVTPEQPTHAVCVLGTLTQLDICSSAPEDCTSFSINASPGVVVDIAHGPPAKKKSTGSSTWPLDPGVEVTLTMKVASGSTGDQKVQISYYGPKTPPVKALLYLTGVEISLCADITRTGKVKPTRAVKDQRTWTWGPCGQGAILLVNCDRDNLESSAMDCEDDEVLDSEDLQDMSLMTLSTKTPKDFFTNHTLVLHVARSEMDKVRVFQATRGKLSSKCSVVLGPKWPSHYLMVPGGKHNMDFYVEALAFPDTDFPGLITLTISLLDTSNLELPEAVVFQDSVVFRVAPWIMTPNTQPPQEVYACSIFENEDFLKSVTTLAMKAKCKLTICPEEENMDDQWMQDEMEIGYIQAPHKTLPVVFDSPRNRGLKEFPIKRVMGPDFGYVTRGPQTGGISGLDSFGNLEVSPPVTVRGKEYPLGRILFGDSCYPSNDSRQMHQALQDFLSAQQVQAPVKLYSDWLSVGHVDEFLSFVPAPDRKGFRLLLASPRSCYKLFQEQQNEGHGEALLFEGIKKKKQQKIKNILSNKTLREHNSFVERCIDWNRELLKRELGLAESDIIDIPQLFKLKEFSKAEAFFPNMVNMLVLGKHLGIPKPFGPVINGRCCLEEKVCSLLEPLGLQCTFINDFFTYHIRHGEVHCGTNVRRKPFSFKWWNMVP

For the molecule `CCn1cc(C(=O)N[C@H](C)c2ccc3cc(-c4nc5cc(C(=O)N6[C@H]7CC[C@@H]6[C@H](N)C7)cc(OC)n5c4C)n(CC4CC4)c3n2)cn1` [Example 77, ~{N}-[(1~{R})-1-[2-[7-[(1~{R},2~{R},4~{S})-2-amino-7-azabicyclo[2.2.1]heptane-7-carbonyl]-5-methoxy-3-methylimidazo [1,2-a]pyridin-2-yl]-1-(cyclopropylmethyl)pyrrolo [2,3-b]pyridin-6-yl]ethyl]-1-ethylpyrazole-4-carboxamide], the IC50 was 0.0307 µM. Take `COc1cc(C(=O)N2[C@H]3CC[C@@H]2[C@H](N)C3)cc2nc(-c3cc4ccc([C@@H](C)NC(=O)C5CC5)nc4n3CC3CC3)c(C)n12` [Example 78, ~{N}-[(1~{R})-1-[2-[7-[(1~{R},2~{R},4~{S})-2-amino-7-azabicyclo[2.2.1]heptane-7-carbonyl]-5-methoxy-3-methylimidazo [1,2-a]pyridin-2-yl]-1-(cyclopropylmethyl)pyrrolo [2,3-b]pyridin-6-yl]ethyl] cyclopropanecarboxamide]: the half-maximal inhibitory concentration (IC50) came out at 0.0414 µM. `COc1cc(C(=O)N2[C@H]3CC[C@@H]2[C@H](N)C3)cc2nc(-c3cc4ccc([C@@H](C)NC(=O)c5cnc(C6CC6)o5)nc4n3CC3CC3)c(C)n12` [Example 79, ~{N}-[(1~{R})-1-[2-[7-[(1~{R},2~{R},4~{S})-2-amino-7-azabicyclo[2.2.1]heptane-7-carbonyl]-5-methoxy-3-methylimidazo [1,2-a]pyridin-2-yl]-1-(cyclopropylmethyl)pyrrolo [2,3-b]pyridin-6-yl]ethyl]-2-cyclopropyl-1,3-oxazole-5-carboxamide]: the half-inhibitory concentration (IC50) worked out at 0.056 µM. Next, `COc1cc(C(=O)N2[C@H]3CC[C@@H]2[C@H](N)C3)cc2nc(-c3cc4ccc([C@@H](C)NC(=O)c5cnc(C)o5)nc4n3CC3CC3)c(C)n12` [Example 80, ~{N}-[(1~{R})-1-[2-[7-[(1~{R},2~{R},4~{S})-2-amino-7-azabicyclo[2.2.1]heptane-7-carbonyl]-5-methoxy-3-methylimidazo [1,2-a]pyridin-2-yl]-1-(cyclopropylmethyl)pyrrolo [2,3-b]pyridin-6-yl]ethyl]-2-methyl-1,3-oxazole-5-carboxamide]: 0.0286 µM; `COc1cc(C(=O)N2[C@H]3CC[C@@H]2[C@H](N)C3)cc2nc(-c3cc4ccc([C@@H](C)NC(=O)c5ccn(C(F)F)n5)nc4n3CC3CC3)c(C)n12` [Example 81, ~{N}-[(1~{R})-1-[2-[7-[(1~{R},2~{R},4~{S})-2-amino-7-azabicyclo[2.2.1]heptane-7-carbonyl]-5-methoxy-3-methylimidazo [1,2-a]pyridin-2-yl]-1-(cyclopropylmethyl)pyrrolo [2,3-b]pyridin-6-yl]ethyl]-1-(difluoromethyl)pyrazole-3-carboxamide]: 0.112 µM; `COc1cc(C(=O)N2[C@H]3CC[C@@H]2[C@H](N)C3)cc2nc(-c3cc4ccc([C@@H](C)NC(=O)c5cnn(C(C)(C)C)c5)nc4n3CC3CC3)c(C)n12` [Example 82, ~{N}-[(1~{R})-1-[2-[7-[(1~{R},2~{R},4~{S})-2-amino-7-azabicyclo[2.2.1]heptane-7-carbonyl]-5-methoxy-3-methylimidazo [1,2-a]pyridin-2-yl]-1-(cyclopropylmethyl)pyrrolo [2,3-b]pyridin-6-yl]ethyl]-1-~{tert}-butylpyrazole-4-carboxamide]: 0.0512 µM.

In the case of `COc1cc(C(=O)N2[C@H]3CC[C@@H]2[C@H](N)C3)cc2nc(-c3cc4ccc([C@@H](C)NC(=O)c5cnccn5)nc4n3CC3CC3)c(C)n12` [Example 83], the 50% inhibitory concentration (IC50) stood at 0.0472 µM. On to `COc1cc(C(=O)N2[C@H]3CC[C@@H]2[C@H](N)C3)cc2nc(-c3cc4ccc([C@@H](C)NC(=O)C5(C)CC(F)(F)C5)nc4n3CC3CC3)c(C)n12` [Example 84, ~{N}-[(1~{R})-1-[2-[7-[(1~{R},2~{R},4~{S})-2-amino-7-azabicyclo[2.2.1]heptane-7-carbonyl]-5-methoxy-3-methylimidazo [1,2-a]pyridin-2-yl]-1-(cyclopropylmethyl)pyrrolo [2,3-b]pyridin-6-yl]ethyl]-3,3-difluoro-1-methylcyclobutane-1-carboxamide], for which the concentration for half-maximal inhibition (IC50) is 0.0597 µM. With `COc1cc(C(=O)N2[C@H]3CC[C@@H]2[C@H](N)C3)cc2nc(-c3cc4ccc([C@@H](C)NC(=O)C5CC(F)(F)C5)nc4n3CC3CC3)c(C)n12` [Example 85, ~{N}-[(1~{R})-1-[2-[7-[(1~{R},2~{R},4~{S})-2-amino-7-azabicyclo[2.2.1]heptane-7-carbonyl]-5-methoxy-3-methylimidazo [1,2-a]pyridin-2-yl]-1-(cyclopropylmethyl)pyrrolo [2,3-b]pyridin-6-yl]ethyl]-3,3-difluorocyclobutane-1-carboxamide], the IC50 stood at 0.0287 µM. Turning to `COc1cc(C(=O)N2[C@H]3CC[C@@H]2[C@H](N)C3)cc2nc(-c3cc4ccc([C@@H](C)NC(=O)C(C)(C)CO)nc4n3CC3CC3)c(C3CC3)n12` [Example 86, ~{N}-[(1~{R})-1-[2-[7-[(1~{R},2~{R},4~{S})-2-amino-7-azabicyclo[2.2.1]heptane-7-carbonyl]-3-cyclopropyl-5-methoxyimidazo [1,2-a]pyridin-2-yl]-1-(cyclopropylmethyl)pyrrolo [2,3-b]pyridin-6-yl]ethyl]-3-hydroxy-2,2-dimethylpropanamide], the IC50 amounted to 0.0578 µM. `COc1cc(C(=O)N2[C@H]3CC[C@@H]2[C@H](N)C3)cc2nc(-c3cc4ccc([C@@H](C)NC(=O)C5(O)CCCC5)nc4n3CC3CC3)c(C)n12` [Example 88, ~{N}-[(1~{R})-1-[2-[7-[(1~{R},2~{R},4~{S})-2-amino-7-azabicyclo[2.2.1]heptane-7-carbonyl]-5-methoxy-3-methylimidazo [1,2-a]pyridin-2-yl]-1-(cyclopropylmethyl)pyrrolo [2,3-b]pyridin-6-yl]ethyl]-1-hydroxycyclopentane-1-carboxamide]: the IC50 was found to be 0.0442 µM.

As for `COc1cc(C(=O)N2[C@H]3CC[C@@H]2[C@H](N)C3)cc2nc(-c3cc4ccc([C@@H](C)NC(=O)C(C)C)nc4n3CC3CC3)c(C)n12` [Example 89, ~{N}-[(1~{R})-1-[2-[7-[(1~{R},2~{R},4~{S})-2-amino-7-azabicyclo[2.2.1]heptane-7-carbonyl]-5-methoxy-3-methylimidazo [1,2-a]pyridin-2-yl]-1-(cyclopropylmethyl)pyrrolo [2,3-b]pyridin-6-yl]ethyl]-2-methylpropanamide], the 50% inhibitory concentration (IC50) was 0.0401 µM. Next, `CCCC(=O)N[C@H](C)c1ccc2cc(-c3nc4cc(C(=O)N5[C@H]6CC[C@@H]5[C@H](N)C6)cc(OC)n4c3C)n(CC3CC3)c2n1` [Example 90, ~{N}-[(1~{R})-1-[2-[7-[(1~{R},2~{R},4~{S})-2-amino-7-azabicyclo[2.2.1]heptane-7-carbonyl]-5-methoxy-3-methylimidazo [1,2-a]pyridin-2-yl]-1-(cyclopropylmethyl)pyrrolo [2,3-b]pyridin-6-yl]ethyl]butanamide]: 0.0304 µM; `COc1cc(C(=O)N2[C@H]3CC[C@@H]2[C@H](N)C3)cc2nc(-c3cc4ccc([C@@H](C)NC(=O)[C@@H](C)O)nc4n3CC3CC3)c(C)n12` [Example 91, (2~{R})-~{N}-[(1~{R})-1-[2-[7-[(1~{R},2~{R},4~{S})-2-amino-7-azabicyclo[2.2.1]heptane-7-carbonyl]-5-methoxy-3-methylimidazo [1,2-a]pyridin-2-yl]-1-(cyclopropylmethyl)pyrrolo [2,3-b]pyridin-6-yl]ethyl]-2-hydroxypropanamide]: 0.043 µM; `COc1cc(C(=O)N2[C@H]3CC[C@@H]2[C@H](N)C3)cc2nc(-c3cc4ccc([C@@H](C)NC(=O)C(C)(O)C5CC5)nc4n3CC3CC3)c(C)n12` (stereo partly shown) [Example 92, ~{N}-[(1~{R})-1-[2-[7-[(1~ {R},2~{R},4~{S})-2-amino-7-azabicyclo[2.2.1]heptane-7-carbonyl]-5-methoxy-3-methylimidazo [1,2-a]pyridin-2-yl]-1-(cyclopropylmethyl)pyrrolo [2,3-b]pyridin-6-yl]ethyl]-2-cyclopropyl-2-hydroxypropanamide]: 0.0597 µM. For the molecule `COc1cc(C(=O)N2[C@H]3CC[C@@H]2[C@H](N)C3)cc2nc(-c3cc4ccc([C@@H](C)NC(=O)C(C)(O)C(C)C)nc4n3CC3CC3)c(C)n12` (stereo partly shown) [Example 93, ~{N}-[(1~{R})-1-[2-[7-[(1~ {R},2~{R},4~{S})-2-amino-7-azabicyclo[2.2.1]heptane-7-carbonyl]-5-methoxy-3-methylimidazo [1,2-a]pyridin-2-yl]-1-(cyclopropylmethyl)pyrrolo [2,3-b]pyridin-6-yl]ethyl]-2-hydroxy-2,3-dimethylbutanamide], the IC50 was 0.0684 µM. As to `COc1cc(C(=O)N2[C@H]3CC[C@@H]2[C@H](N)C3)cc2nc(-c3cc4ccc([C@@H](C)NC(=O)[C@H](C)O)nc4n3CC3CC3)c(C)n12` [Example 94, (2~{S})-~{N}-[(1~{R})-1-[2-[7-[(1~{R},2~{R},4~{S})-2-amino-7-azabicyclo [2.2.1]heptane-7-carbonyl]-5-methoxy-3-methylimidazo [1,2-a]pyridin-2-yl]-1-(cyclopropylmethyl)pyrrolo [2,3-b]pyridin-6-yl]ethyl]-2-hydroxypropanamide], the concentration for half-maximal inhibition (IC50) amounted to 0.038 µM. Then `COc1cc(C(=O)N2[C@H]3CC[C@@H]2[C@H](N)C3)cc2nc(-c3cc4ccc([C@@H](C)NC(=O)C5(O)CCC5)nc4n3CC3CC3)c(C)n12` [Example 95, ~{N}-[(1~{R})-1-[2-[7-[(1~ {R},2~{R},4~{S})-2-amino-7-azabicyclo[2.2.1]heptane-7-carbonyl]-5-methoxy-3-methylimidazo[1,2-a]pyridin-2-yl]-1-(cyclopropylmethyl)pyrrolo [2,3-b]pyridin-6-yl]ethyl]-1-hydroxycyclobutane-1-carboxamide], with 0.0435 µM; and `COc1cc(C(=O)N2[C@H]3CC[C@@H]2[C@H](N)C3)cc2nc(-c3cc4ccc([C@@H](C)NC(=O)CN=S(C)(C)=O)nc4n3CC3CC3)c(C)n12` [Example 96], with 0.039 µM.
